Publication PMC5218480 (PLoS ONE, 2017)

Tested on: MV-4-11 cells
Assay: Gene expression microarray analysis (Affymetrix PrimeView) and GSEA
Type: cell-based, human
Set-up: RFU PODN (11730768_x_at) / Fold change /veh PODN (11730768_x_at) / RFU LINC00158 (11744669_a_at) / Fold change /veh LINC00158 (11744669_a_at) / RFU DUSP10 (11751237_a_at) / Fold change /veh DUSP10 (11751237_a_at) / RFU ID3 (11757404_x_at) / Fold change /veh ID3 (11757404_x_at) / RFU PLEKHG5 (11737974_s_at) / Fold change /veh PLEKHG5 (11737974_s_at) / RFU LRRC4B (11730491_at) / Fold change /veh LRRC4B (11730491_at) / RFU GIMAP4 (11747438_a_at) / Fold change /veh GIMAP4 (11747438_a_at) / RFU KRT8 (11758183_x_at) / Fold change /veh KRT8 (11758183_x_at) / RFU CNN1 (11734310_a_at) / Fold change /veh CNN1 (11734310_a_at) / RFU VPS37D (11726825_at) / Fold change /veh VPS37D (11726825_at) / RFU C10orf10 (11716522_x_at) / Fold change /veh C10orf10 (11716522_x_at) / RFU KIR2DL2 /// KIR2DL4 /// KIR2DL5A /// KIR2DL5B /// KIR2DS1 /// KIR2DS2 /// KIR2DS3 /// KIR2DS4 /// KIR3DL3 /// KIR3DL3 /// KIR3DS1 (11738374_at) / Fold change /veh KIR2DL2 /// KIR2DL4 /// KIR2DL5A /// KIR2DL5B /// KIR2DS1 /// KIR2DS2 /// KIR2DS3 /// KIR2DS4 /// KIR3DL3 /// KIR3DL3 /// KIR3DS1 (11738374_at) / RFU C1QL1 (11718748_at) / Fold change /veh C1QL1 (11718748_at) / RFU TMPRSS4 (11747572_a_at) / Fold change /veh TMPRSS4 (11747572_a_at) / RFU HAMP (11756126_x_at) / Fold change /veh HAMP (11756126_x_at) / RFU RNFT2 (11725882_a_at) / Fold change /veh RNFT2 (11725882_a_at) / RFU NR4A2 (11747474_a_at) / Fold change /veh NR4A2 (11747474_a_at) / RFU ABCC12 (11746883_a_at) / Fold change /veh ABCC12 (11746883_a_at) / RFU TMEM136 (11760407_x_at) / Fold change /veh TMEM136 (11760407_x_at) / RFU CLDN22 /// WWC2 (11732394_at) / Fold change /veh CLDN22 /// WWC2 (11732394_at) / RFU HLA-DPB1 (11760878_x_at) / Fold change /veh HLA-DPB1 (11760878_x_at) / RFU SPINT1 (11716480_a_at) / Fold change /veh SPINT1 (11716480_a_at) / RFU GAP43 (11754022_s_at) / Fold change /veh GAP43 (11754022_s_at) / RFU A4GNT (11735810_at) / Fold change /veh A4GNT (11735810_at) / RFU PRB3 (11715151_x_at) / Fold change /veh PRB3 (11715151_x_at) / RFU TUBB4B (11761932_at) / Fold change /veh TUBB4B (11761932_at) / RFU CAPN14 (11732068_a_at) / Fold change /veh CAPN14 (11732068_a_at) / RFU TMCC2 (11721928_a_at) / Fold change /veh TMCC2 (11721928_a_at) / RFU IRGQ (11745062_a_at) / Fold change /veh IRGQ (11745062_a_at) / RFU FAM174B (11720279_a_at) / Fold change /veh FAM174B (11720279_a_at) / RFU TMPRSS4 (11748680_a_at) / Fold change /veh TMPRSS4 (11748680_a_at) / RFU FAM212B (11763350_a_at) / Fold change /veh FAM212B (11763350_a_at) / RFU PLEKHG5 (11743358_a_at) / Fold change /veh PLEKHG5 (11743358_a_at) / RFU ZSCAN30 (11745921_a_at) / Fold change /veh ZSCAN30 (11745921_a_at) / RFU CMKLR1 (11741424_a_at) / Fold change /veh CMKLR1 (11741424_a_at) / RFU LOC101060620 /// MAPK8IP1 (11723275_at) / Fold change /veh LOC101060620 /// MAPK8IP1 (11723275_at) / RFU SPTSSB (11747773_x_at) / Fold change /veh SPTSSB (11747773_x_at) / RFU PRSS12 (11739890_at) / Fold change /veh PRSS12 (11739890_at) / RFU BIN1 (11741810_x_at) / Fold change /veh BIN1 (11741810_x_at) / RFU WNT11 (11732464_a_at) / Fold change /veh WNT11 (11732464_a_at) / RFU C10orf10 (11716521_a_at) / Fold change /veh C10orf10 (11716521_a_at) / RFU C5orf56 (11738089_at) / Fold change /veh C5orf56 (11738089_at) / RFU CYB561 (11721691_x_at) / Fold change /veh CYB561 (11721691_x_at) / RFU ANKRD19P (11752326_a_at) / Fold change /veh ANKRD19P (11752326_a_at) / RFU OR2T12 /// OR2T33 /// OR2T8 (11738714_s_at) / Fold change /veh OR2T12 /// OR2T33 /// OR2T8 (11738714_s_at) / RFU VCAN (11748164_a_at) / Fold change /veh VCAN (11748164_a_at) / RFU JSRP1 (11732532_at) / Fold change /veh JSRP1 (11732532_at) / RFU KRTAP10-11 (11738290_x_at) / Fold change /veh KRTAP10-11 (11738290_x_at) / RFU MYO3A (11730013_a_at) / Fold change /veh MYO3A (11730013_a_at) / RFU EBF3 (11725865_a_at) / Fold change /veh EBF3 (11725865_a_at) / RFU CAMK2N1 (11719241_x_at) / Fold change /veh CAMK2N1 (11719241_x_at) / RFU C5orf56 (11738088_a_at) / Fold change /veh C5orf56 (11738088_a_at) / RFU OLFML3 (11715873_a_at) / Fold change /veh OLFML3 (11715873_a_at) / RFU LOC100653217 /// NTM (11731650_a_at) / Fold change /veh LOC100653217 /// NTM (11731650_a_at) / RFU MAPK11 (11762145_a_at) / Fold change /veh MAPK11 (11762145_a_at) / RFU FIZ1 (11724087_x_at) / Fold change /veh FIZ1 (11724087_x_at) / RFU OASL (11726364_x_at) / Fold change /veh OASL (11726364_x_at) / RFU SOX15 (11748057_x_at) / Fold change /veh SOX15 (11748057_x_at) / RFU CD79A (11719716_a_at) / Fold change /veh CD79A (11719716_a_at) / RFU HIST1H1D (11736915_at) / Fold change /veh HIST1H1D (11736915_at) / RFU CASKIN2 (11723855_a_at) / Fold change /veh CASKIN2 (11723855_a_at) / RFU LOC730098 (11760151_x_at) / Fold change /veh LOC730098 (11760151_x_at) / RFU OR4N2 (11742367_at) / Fold change /veh OR4N2 (11742367_at) / RFU PRRT2 (11749266_a_at) / Fold change /veh PRRT2 (11749266_a_at) / RFU SNX32 (11753110_a_at) / Fold change /veh SNX32 (11753110_a_at) / RFU CDHR5 (11726645_a_at) / Fold change /veh CDHR5 (11726645_a_at) / RFU RCAN1 (11760418_a_at) / Fold change /veh RCAN1 (11760418_a_at) / RFU FAM167A (11723789_a_at) / Fold change /veh FAM167A (11723789_a_at) / RFU FAM26E (11764081_at) / Fold change /veh FAM26E (11764081_at) / RFU ISYNA1 (11749810_s_at) / Fold change /veh ISYNA1 (11749810_s_at) / RFU ACY1 (11761880_at) / Fold change /veh ACY1 (11761880_at) / RFU 11764098_at / Fold change /veh 11764098_at / RFU SAMD14 (11745864_x_at) / Fold change /veh SAMD14 (11745864_x_at) / RFU NPB (11741838_a_at) / Fold change /veh NPB (11741838_a_at) / RFU TMPRSS6 (11731388_a_at) / Fold change /veh TMPRSS6 (11731388_a_at) / RFU KRTAP10-2 (11738614_at) / Fold change /veh KRTAP10-2 (11738614_at) / RFU ARHGAP8 /// PRR5-ARHGAP8 (11727945_x_at) / Fold change /veh ARHGAP8 /// PRR5-ARHGAP8 (11727945_x_at) / RFU KRTAP5-7 /// NADSYN1 (11734609_at) / Fold change /veh KRTAP5-7 /// NADSYN1 (11734609_at) / RFU RASL12 (11751679_a_at) / Fold change /veh RASL12 (11751679_a_at) / RFU CDKN2B (11736163_a_at) / Fold change /veh CDKN2B (11736163_a_at) / RFU PRF1 (11729649_at) / Fold change /veh PRF1 (11729649_at) / RFU, ZNF638 /// ZNF638-IT1 / Fold change vs veh, ZNF638 /// ZNF638-IT1 / RFU, PANK3 / Fold change vs veh, PANK3 / RFU, SH3YL1 / Fold change vs veh, SH3YL1 / RFU, ZEB2 / Fold change vs veh, ZEB2 / RFU, NRIP1 / Fold change vs veh, NRIP1 / RFU, PTTG1IP / Fold change vs veh, PTTG1IP / RFU, CAPN2 / Fold change vs veh, CAPN2 / RFU, MED14 / Fold change vs veh, MED14 / RFU, SNORA58 / Fold change vs veh, SNORA58 / RFU, C1orf63 / Fold change vs veh, C1orf63 / RFU, LRRFIP1 / Fold change vs veh, LRRFIP1 / RFU, NDUFAF7 / Fold change vs veh, NDUFAF7 / RFU, SLC12A2 / Fold change vs veh, SLC12A2 / RFU, IBTK / Fold change vs veh, IBTK / RFU, ESF1 / Fold change vs veh, ESF1 / Fold change vs veh, TMEM50B / RFU, TAOK1 / Fold change vs veh, TAOK1 / RFU, ACBD3 / Fold change vs veh, ACBD3 / RFU, TMA16 / Fold change vs veh, TMA16 / RFU, RWDD3 / Fold change vs veh, RWDD3 / RFU, BCAT1 / Fold change vs veh, BCAT1 / RFU, EDEM3 / Fold change vs veh, EDEM3 / RFU, TMEM33 / Fold change vs veh, TMEM33 / RFU, WDR75 / Fold change vs veh, WDR75 / RFU, AHCTF1 / Fold change vs veh, AHCTF1 / RFU, TFRC / Fold change vs veh, TFRC / RFU, ZDHHC17 / Fold change vs veh, ZDHHC17 / RFU, NOM1 / Fold change vs veh, NOM1 / RFU, ARL8B / Fold change vs veh, ARL8B / RFU, ZBTB11 / Fold change vs veh, ZBTB11 / RFU, TAMM41 / Fold change vs veh, TAMM41 / RFU, KIAA1704 /// LOC100996395 / Fold change vs veh, KIAA1704 /// LOC100996395 / RFU, ING1 / Fold change vs veh, ING1 / RFU, TRMT61B / Fold change vs veh, TRMT61B / RFU, FUBP3 / Fold change vs veh, FUBP3 / RFU, TP53 / Fold change vs veh, TP53 / RFU, TNKS2 / Fold change vs veh, TNKS2 / RFU, ZFP14 / Fold change vs veh, ZFP14 / RFU, ACTR2 / Fold change vs veh, ACTR2 / RFU, PPP3R1 / Fold change vs veh, PPP3R1 / RFU, PIK3R1 / Fold change vs veh, PIK3R1 / RFU, HNRNPA1 / Fold change vs veh, HNRNPA1 / RFU, RNF170 / Fold change vs veh, RNF170 / RFU, ZNF28 / Fold change vs veh, ZNF28 / RFU, RNGTT / Fold change vs veh, RNGTT / RFU, OGT / Fold change vs veh, OGT / RFU, BRD1 / Fold change vs veh, BRD1 / RFU, MARS / Fold change vs veh, MARS / RFU, ZNF655 / Fold change vs veh, ZNF655 / RFU, FAHD1 / Fold change vs veh, FAHD1 / RFU, BDP1 / Fold change vs veh, BDP1 / RFU, LRRCC1 / Fold change vs veh, LRRCC1 / RFU, ARID1A / Fold change vs veh, ARID1A / RFU, ZNF146 / Fold change vs veh, ZNF146 / RFU, ZNF330 / Fold change vs veh, ZNF330 / RFU, GPN3 / Fold change vs veh, GPN3 / RFU, C9orf123 / Fold change vs veh, C9orf123 / RFU, N4BP2L2 / Fold change vs veh, N4BP2L2 / RFU, ARFIP1 / Fold change vs veh, ARFIP1 / RFU, FAM179B / Fold change vs veh, FAM179B / RFU, BCL10 / Fold change vs veh, BCL10 / RFU, UHRF1BP1L / Fold change vs veh, UHRF1BP1L / RFU, BET1 / Fold change vs veh, BET1 / RFU, CNOT2 / Fold change vs veh, CNOT2 / RFU, ZNF268 / Fold change vs veh, ZNF268 / Fold change vs veh, ZNF507 / RFU, DGCR2 / Fold change vs veh, DGCR2 / RFU, WDSUB1 / Fold change vs veh, WDSUB1 / Fold change vs veh, HSP90B1 /// MIR3652 / RFU, ADSS / Fold change vs veh, ADSS / RFU, GK / Fold change vs veh, GK / RFU, ZNF148 / Fold change vs veh, ZNF148 / RFU, TAF9 / Fold change vs veh, TAF9 / RFU, SLC1A5 / Fold change vs veh, SLC1A5 / RFU, SLMO2 / Fold change vs veh, SLMO2 / RFU, ABCC4 / Fold change vs veh, ABCC4 / RFU, LOC101060439 /// RAP1B / Fold change vs veh, LOC101060439 /// RAP1B / RFU, RFX7 / Fold change vs veh, RFX7 / RFU, GTPBP10 / Fold change vs veh, GTPBP10 / RFU, CNEP1R1 / Fold change vs veh, CNEP1R1 / RFU, BIVM-ERCC5 /// ERCC5 / Fold change vs veh, BIVM-ERCC5 /// ERCC5 / RFU, ILF3 / Fold change vs veh, ILF3 / RFU 11762660_at / Fold change /veh 11762660_at / RFU VCAN (11757783_s_at) / Fold change /veh VCAN (11757783_s_at) / RFU DDX43 (11728927_at) / Fold change /veh DDX43 (11728927_at) / RFU KRT8 (11758188_x_at) / Fold change /veh KRT8 (11758188_x_at) / RFU NKD1 (11759106_at) / Fold change /veh NKD1 (11759106_at) / RFU SRD5A1 (11742802_a_at) / Fold change /veh SRD5A1 (11742802_a_at) / RFU TPSAB1 /// TPSB2 (11721975_s_at) / Fold change /veh TPSAB1 /// TPSB2 (11721975_s_at) / RFU GSTM3 (11746129_a_at) / Fold change /veh GSTM3 (11746129_a_at) / RFU IL23R (11737362_x_at) / Fold change /veh IL23R (11737362_x_at) / RFU TMEM51 (11727254_a_at) / Fold change /veh TMEM51 (11727254_a_at) / RFU PIWIL2 (11732686_x_at) / Fold change /veh PIWIL2 (11732686_x_at) / RFU ORM1 (11744905_x_at) / Fold change /veh ORM1 (11744905_x_at) / RFU CCDC152 (11743942_at) / Fold change /veh CCDC152 (11743942_at) / RFU ECM1 (11717891_a_at) / Fold change /veh ECM1 (11717891_a_at) / RFU IL23R (11748794_a_at) / Fold change /veh IL23R (11748794_a_at) / RFU TNFAIP8L3 (11732012_x_at) / Fold change /veh TNFAIP8L3 (11732012_x_at) / RFU MBOAT4 (11741988_at) / Fold change /veh MBOAT4 (11741988_at) / RFU 11764193_at / Fold change /veh 11764193_at / RFU TMEM53 (11763286_at) / Fold change /veh TMEM53 (11763286_at) / RFU MAGEB2 (11727129_at) / Fold change /veh MAGEB2 (11727129_at) / RFU TMEM200A (11744735_a_at) / Fold change /veh TMEM200A (11744735_a_at) / RFU CCDC152 (11751479_a_at) / Fold change /veh CCDC152 (11751479_a_at) / RFU FAM211A (11726209_a_at) / Fold change /veh FAM211A (11726209_a_at) / RFU RGS16 (11746705_a_at) / Fold change /veh RGS16 (11746705_a_at) / RFU VCAN (11755009_s_at) / Fold change /veh VCAN (11755009_s_at) / RFU RHOB (11743442_s_at) / Fold change /veh RHOB (11743442_s_at) / RFU RGS16 (11720943_a_at) / Fold change /veh RGS16 (11720943_a_at) / RFU RGS16 (11720944_at) / Fold change /veh RGS16 (11720944_at) / RFU, VPS4B / Fold change vs veh, VPS4B / RFU, CREB1 / Fold change vs veh, CREB1 / RFU, DNAJC13 / Fold change vs veh, DNAJC13 / RFU, GNAQ / Fold change vs veh, GNAQ / RFU, CDK5R1 / Fold change vs veh, CDK5R1 / RFU, ZRANB3 / Fold change vs veh, ZRANB3 / RFU, CUL4A / Fold change vs veh, CUL4A / RFU, CCNY / Fold change vs veh, CCNY / RFU, UFL1 / Fold change vs veh, UFL1 / RFU, COG3 / Fold change vs veh, COG3 / RFU, DIAPH2 / Fold change vs veh, DIAPH2 / RFU, SKA2 / Fold change vs veh, SKA2 / RFU, AFF3 / Fold change vs veh, AFF3 / RFU, LMF1 / Fold change vs veh, LMF1 / RFU, IPO11 / Fold change vs veh, IPO11 / RFU, DFFB / Fold change vs veh, DFFB / RFU, FOXP1 / Fold change vs veh, FOXP1 / RFU, CARD8 / Fold change vs veh, CARD8 / RFU, STRN3 / Fold change vs veh, STRN3 / RFU, ADK / Fold change vs veh, ADK / RFU, RASSF2 / Fold change vs veh, RASSF2 / RFU, WIPF1 / Fold change vs veh, WIPF1 / RFU, LARP1B / Fold change vs veh, LARP1B / RFU, RASA1 / Fold change vs veh, RASA1 / RFU, RB1 / Fold change vs veh, RB1 / RFU, PPFIA1 / Fold change vs veh, PPFIA1 / RFU, MAT2A / Fold change vs veh, MAT2A / RFU, CCT5 / Fold change vs veh, CCT5 / RFU, WDR92 / Fold change vs veh, WDR92 / RFU, CUX1 / Fold change vs veh, CUX1 / RFU, TTC7A / Fold change vs veh, TTC7A / RFU, TMEM135 / Fold change vs veh, TMEM135 / RFU, DEPTOR / Fold change vs veh, DEPTOR / RFU, CPM / Fold change vs veh, CPM / RFU, DNAJB6 / Fold change vs veh, DNAJB6 / RFU, CACNA2D3 / Fold change vs veh, CACNA2D3 / RFU, DTX4 / Fold change vs veh, DTX4 / RFU, TFCP2 / Fold change vs veh, TFCP2 / RFU, GMCL1 /// GMCL1P1 / Fold change vs veh, GMCL1 /// GMCL1P1 / RFU, AEBP2 / Fold change vs veh, AEBP2 / RFU, SNHG1 /// SNORD22 /// SNORD25 /// SNORD26 /// SNORD27 /// SNORD28 /// SNORD29 /// SNORD31 / Fold change vs veh, SNHG1 /// SNORD22 /// SNORD25 /// SNORD26 /// SNORD27 /// SNORD28 /// SNORD29 /// SNORD31 / Fold change (Aza/veh), C12orf56 (ProbeSet 11735607_a_at) / Fold change (ACY-1035/veh), C12orf56 (ProbeSet 11735607_a_at) / Fold change (Aza/veh), FGFR1OP (ProbeSet 11751329_s_at) / Fold change (ACY-1035/veh), FGFR1OP (ProbeSet 11751329_s_at) / Fold change (Aza/veh), VPS36 (ProbeSet 11739960_a_at) / Fold change (ACY-1035/veh), VPS36 (ProbeSet 11739960_a_at) / RFU SYPL1 (11715823_x_at) / Fold change /veh SYPL1 (11715823_x_at) / RFU IGFBP7 (11715501_s_at) / Fold change /veh IGFBP7 (11715501_s_at) / RFU REEP3 (11722064_at) / Fold change /veh REEP3 (11722064_at) / RFU IGLL1 (11728026_x_at) / Fold change /veh IGLL1 (11728026_x_at): dose or concentration left out as unconfirmed
Conditions: ProbeSet 11720154_at; LIST B

**Q.** `Nc1ccc(-c2cccs2)cc1NC(=O)c1ccc2c(c1)cc(C1CC1)n2CCN1CCOCC1` [ACY-1035] was tested. Which “Fold change vs veh, NRIP1” value did it give?
**A.** 0.88
